From patent US7902373B2 (Pfizer Inc, priority 2006, dated 2011)

Molecular target: human recombinant H-PGDS (Homo sapiens, UniProt O60760)
Assay: Fluorescence intensity h-PGDS TBA enzyme assay
Format: biochemical
Conditions: Examples up to 622 (and 3a, 3b)

Chain of human recombinant H-PGDS (O60760 whole entry): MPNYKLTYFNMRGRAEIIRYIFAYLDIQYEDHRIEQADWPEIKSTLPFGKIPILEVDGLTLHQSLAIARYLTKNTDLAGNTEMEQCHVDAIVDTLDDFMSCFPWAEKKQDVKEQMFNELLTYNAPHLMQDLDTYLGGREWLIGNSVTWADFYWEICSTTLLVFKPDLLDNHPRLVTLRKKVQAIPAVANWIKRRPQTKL

Row | IC50 | SMILES
1 | 1.23 nM | O=C(NC1CCN(c2cnc3ccccc3n2)CC1)c1ccc(-c2cccc(F)c2)nc1 [Example 138, 6-(3-Fluorophenyl)-N-(1-quinoxalin-2-ylpiperidin-4-yl)nicotinamide]
2 | 0.222 nM | O=C(NC1CCN(c2ncccn2)CC1)c1ccc(-c2cccc(F)c2)nc1 [Example 139, 6-(3-Fluorophenyl)-N-(1-pyrimidin-2-ylpiperidin-4-yl)nicotinamide]
3 | 0.628 nM | N#Cc1cccnc1N1CCC(NC(=O)c2ccc(-c3cccc(F)c3)nc2)CC1 [Example 140, N-[1-(3-Cyanopyridin-2-yl)piperidin-4-yl]-6-(3-fluorophenyl)nicotinamide]
4 | 0.721 nM | Cc1noc(NC(=O)c2cccnc2N2CCC(NC(=O)c3ccc(-c4cccc(F)c4)nc3)CC2)c1C#N [Example 141, N-(4-Cyano-3-methylisoxazol-5-yl)-2-[4-({[6-(3-fluorophenyl)pyridin-3-yl]carbonyl}amino)piperidin-1-yl]nicotinamide]
5 | 0.33 nM | N#Cc1nccnc1N1CCC(NC(=O)c2ccc(-c3cccc(F)c3)nc2)CC1 [Example 142, N-[1-(3-Cyanopyrazin-2-yl)piperidin-4-yl]-6-(3-fluorophenyl)nicotinamide]
6 | 0.688 nM | Cc1cc(N(C)C)nc(N2CCC(NC(=O)c3ccc(-c4cccc(F)c4)nc3)CC2)n1 [Example 143, N-{1-[4-(Dimethylamino)-6-methylpyrimidin-2-yl]piperidin-4-yl}-6-(3-fluorophenyl)nicotinamide]
7 | 9.56 nM | COCc1cc(N2CCC(NC(=O)c3ccc(-c4cccc(F)c4)nc3)CC2)nc(-c2ccccc2)n1 [Example 144, 6-(3-Fluorophenyl)-N-{1-[6-(methoxymethyl)-2-phenylpyrimidin-4-yl]piperidin-4-yl}nicotinamide]
8 | 5.94 nM | CCOC(=O)c1cnc(C(F)(F)F)nc1N1CCC(NC(=O)c2ccc(-c3cccc(F)c3)nc2)CC1 [Example 145, Ethyl 4-[4-({[6-(3-fluorophenyl)pyridin-3-yl]carbonyl}amino)piperidin-1-yl]-2-(trifluoromethyl)pyrimidine-5-carboxylate]
9 | 1.55 nM | O=C(NC1CCN(c2ncccc2C(=O)N2CCOCC2)CC1)c1ccc(-c2cccc(F)c2)nc1 [Example 146, 6-(3-Fluorophenyl)-N-{1-[3-(morpholin-4-ylcarbonyl)pyridin-2-yl]piperidin-4-yl}nicotinamide]
10 | 0.737 nM | O=C(NC1CCN(c2ncnc3c2ncn3C2CCCCO2)CC1)c1ccc(-c2cccc(F)c2)nc1 (centres unmarked) [Example 147, 6-(3-Fluorophenyl)-N-{1-[9-(tetrahydro-2H-pyran-2-yl)-9H-purin-6-yl]piperidin-4-yl}nicotinamide]
11 | 1.75 nM | NC(=O)c1ccc(C(F)(F)F)nc1N1CCC(NC(=O)c2ccc(-c3cccc(F)c3)nc2)CC1 [Example 148, 2-[4-({[6-(3-Fluorophenyl)pyridin-3-yl]carbonyl}amino)piperidin-1-yl]-6-(trifluoromethyl)nicotinamide]
12 | 1.82 nM | O=C(NC1CCN(c2ccc(C(=O)c3ccccn3)cn2)CC1)c1ccc(-c2cccc(F)c2)nc1 [Example 149, 6-(3-Fluorophenyl)-N-{1-[5-(pyridin-2-ylcarbonyl)pyridin-2-yl]piperidin-4-yl}nicotinamide]
13 | 1.8 nM | COC(=O)c1cc(C)nc(N2CCC(NC(=O)c3ccc(-c4cccc(F)c4)nc3)CC2)n1 [Example 150, Methyl 2-[4-({[6-(3-fluorophenyl)pyridin-3-yl]carbonyl}amino)piperidin-1-yl]-6-methylpyrimidine-4-carboxylate]
14 | 0.519 nM | Nc1cc(N2CCC(NC(=O)c3ccc(-c4cccc(F)c4)nc3)CC2)ncn1 [Example 151, N-[1-(6-Aminopyrmidin-4-yl)piperidin-4-yl]-6-(3-fluorophenyl)nicotinamide]
15 | 3.35 nM | O=C(NC1CCN(c2ncccc2C(=O)NCc2ccccc2)CC1)c1ccc(-c2cccc(F)c2)nc1 [Example 152, N-Benzyl-2-[4-({[6-(3-fluorophenyl)pyridin-3-yl]carbonyl}amino)piperidin-1-yl]nicotinamide]
16 | 1.89 nM | O=C(NC1CCN(c2nc3ccccc3s2)CC1)c1ccc(-c2cccc(F)c2)nc1 [Example 153, N-[1-(1,3-Benzothiazol-2-yl)piperidin-4-yl]-6-(3-fluorophenyl)nicotinamide]
17 | 0.96 nM | CCc1cn2nc(N3CCC(NC(=O)c4ccc(-c5cccc(F)c5)nc4)CC3)ccc2n1 [Example 154, N-[1-(2-Ethylimidazo[1,2-b]pyridazin-6-yl)piperidin-4-yl]-6-(3-fluorophenyl)nicotinamide]
18 | 2.3 nM | CC(C)c1nccnc1N1CCC(NC(=O)c2ccc(-c3cccc(F)c3)nc2)CC1 [Example 155, 6-(3-Fluorophenyl)-N-[1-(3-isopropylpyrazin-2-yl)piperidin-4-yl]nicotinamide]
19 | 3.15 nM | CC[C@@H](C)c1nccnc1N1CCC(NC(=O)c2ccc(-c3cccc(F)c3)nc2)CC1 [Example 156, 6-(3-Fluorophenyl)-N-(1-{3-[(1R)-1-methylpropyl]pyrazin-2-yl}piperidin-4-yl)nicotinamide]
20 | 0.678 nM | CC(C)NC(=O)c1ccc(N2CCC(NC(=O)c3ccc(-c4cccc(F)c4)nc3)CC2)nn1 [Example 157, 6-[4-({[6-(3-Fluorophenyl)pyridin-3-yl]carbonyl}amino)piperidin-1-yl]-N-isopropylpyridazine-3-carboxamide]
21 | 1.58 nM | O=C(NC1CCN(c2nc3ccccc3o2)CC1)c1ccc(-c2cccc(F)c2)nc1 [Example 158, N-[1-(1,3-Benzoxazol-2-yl)piperidin-4-yl]-6-(3-fluorophenyl)nicotinamide]
22 | 1.59 nM | CC(C)CN(C)C(=O)c1ccc(N2CCC(NC(=O)c3ccc(-c4cccc(F)c4)nc3)CC2)nn1 [Example 159, 6-[4-({[6-(3-Fluorophenyl)pyridin-3-yl]carbonyl}amino)piperidin-1-yl]-N-isobutyl-N-methylpyridazine-3-carboxamide]
23 | 0.483 nM | Cc1cc(NC(=O)c2ccc(N3CCC(NC(=O)c4ccc(-c5cccc(F)c5)nc4)CC3)nn2)n(C)n1 [Example 160, N-(1,3-Dimethyl-1H-pyrazol-5-yl)-6-[4-({[6-(3-fluorophenyl)pyridin-3-yl]carbonyl}amino)piperidin-1-yl]pyridazine-3-carboxamide]
24 | 3.85 nM | Cn1c(-c2cccc(C#N)c2)nc2c(N3CCC(NC(=O)c4ccc(-c5cccc(F)c5)nc4)CC3)ncnc21 [Example 161, N-{1-[8-(3-Cyanophenyl)-9-methyl-9H-purin-6-yl]piperidin-4-yl}-6-(3-fluorophenyl)nicotinamide]
25 | 1.1 nM | Cc1cnc(Cn2cnc3c(N4CCC(NC(=O)c5ccc(-c6cccc(F)c6)nc5)CC4)ncnc32)cn1 [Example 162, 6-(3-Fluorophenyl)-N-(1-{9-[(5-methylpyrazin-2-yl)methyl]-9H-purin-6-yl}piperidin-4-yl)nicotinamide]
26 | 14.5 nM | O=C(NC1CCN(c2ccc(C(=O)NCC3CCCCC3)nn2)CC1)c1ccc(-c2cccc(F)c2)nc1 [Example 163, N-(Cyclohexylmethyl)-6-[4-({[6-(3-fluorophenyl)pyridin-3-yl]carbonyl}amino)piperidin-1-yl]pyridazine-3-carboxamide]
